Measured values from patent US10046048B2, “Homogenous suspension of immunopotentiating compounds and uses thereof” (GlaxoSmithKline Biologicals SA, priority 2009, dated 2018).

Columns and labels:
[1] = aqueous solubility and chemical stability of Example 47; assay type: physicochemical
Description: Example 47 is a highly crystalline drug substance with very good chemical stability. Due to its extremely low aqueous solubility across full pH range (<0.5 μg/ml) and its high hydrophobic core structure, formulation with Alum (the only vaccine adjuvant licensed in the U.S.) is challenging. However, TLR7 agonist-Alum based vaccines could provide advantages, for example, induction of Th1 polarized response, and enhanced Serum Bactericidal Activity (SBA) and breath of coverage (e.g., MenB).

[2] = particle size after vortexing, sonication, mortar and pestle; assay type: physicochemical; conditions: for average particle size: 2.5 mg/mL in 0.1% Tween 80 and 0.5% CMC, vortexing
Description: A number of homogenization methods were evaluated, including vortexing, sonication, and mortar and pestle method.
For vortexing, Example 47 was suspended at 2.5 mg/mL in 0.1% Tween 80 and 0.5% carboxymethyl cellulose (CMC), followed by vortexing. The average particle size was ˜100 μm.
For sonication, Example 47 was suspended at 2.5 mg/mL in 0.1% Tween 80 and 0.5% CMC followed by vortexing. The mixture was then subject to probe sonication for 5 minutes (with ice at 3 W, maximum power based on vial size). Finally, the mixture was homogenized by a handheld homogenizer for a few minutes. The average particle size was ˜80 μm.
In mortar and pestle method, 10 mg of Example 47 was ground for 5 minutes using mortar and pestle, then suspended in 0.5% Tween 80. […] Size range for the larger peak was 1-100 μm.

[3] = matrix of surfactants and suspending agents, size distribution by Mastersizer; assay type: physicochemical; conditions: vortexed, probe sonicated, homogenized
Description: A number of surfactants and suspension agents were also evaluated. The matrix of surfactants and suspending agents, and the corresponding sizes distributions of the suspension particles are shown in the Table 1 below (D50, D90 (μm)).
In each experiment, 10 mg of Example 47 was mixed with 2 mL surfactant and 2 mL suspending agent. The mixtures were vortexed for 5 minutes, and probe sonicated at 3 W and homogenized for 2-4 minutes. The size distributions of the samples were measured using Mastersizer.
No visual size reduction was observed after sonication. Some size reduction was noticed visually after homogenization.

[4] = serum, injection site muscle and lymph node levels after intramuscular injection; assay type: in vivo; conditions: mice, intramuscular 4 mpk with 3MenB/Alum; both DMSO (non-homogeneous) and homogeneous suspensions
RSV virus = assay: neutralizing titers (PRNT60), RSV model; assay type: in vivo, respiratory syncytial virus (RSV); conditions: Study 1; Balb/c mice; 25 μg dose
Source text: Mice were bled retro-orbitally on day 28.

[5] = 10 mg ground 5 minutes with mortar and pestle, suspended in 0.5% Tween 80
[6] = 0.5% CMC, 0.5% Sodium Lauryl Sulfate
[7] = 0.5% HPC, 0.5% Sodium Lauryl Sulfate
[8] = 0.5% HPMC, 0.5% Sodium Lauryl Sulfate

SMILES: Cc1ccc(CCc2cnc3c(N)nc4ccccc4c3c2)c(C)c1 [Example 47, 2-(2,4-dimethylphenethyl)benzo[f][1,7]naphthyridin-5-amine]
- solubility ([1]; aqueous media, across full pH range): < 0.5 µg/mL
- chemical stability ([1]; crystalline drug substance): very good
- average particle size [2]: ~100 μm
- average particle size ([2]; probe sonication 5 minutes, handheld homogenizer): ~80 μm
- particle size peak (larger) [2, 5]: ~8 μm
- particle size peak (smaller) [2, 5]: 0.1 μm
- size range for the larger peak [2, 5]: 1-100 μm
- D50 ([3]; 0.5% CMC, 0.1% Tween 80): 76.2 μm
- D90 ([3]; 0.5% CMC, 0.1% Tween 80): 144.7 μm
- D50 ([3]; 0.5% CMC, 0.5% Pluronic F-68): 49.1 μm
- D90 ([3]; 0.5% CMC, 0.5% Pluronic F-68): 104.4 μm
- D50 [3, 6]: 28.0 μm
- D90 [3, 6]: 53.3 μm
- D50 ([3]; 0.5% CMC, 0.5% Tween 80): 75.8 μm
- D90 ([3]; 0.5% CMC, 0.5% Tween 80): 149.1 μm
- D50 ([3]; 0.5% HPC, 0.1% Tween 80): 43.6 μm
- D90 ([3]; 0.5% HPC, 0.1% Tween 80): 68.0 μm
- D50 ([3]; 0.5% HPC, 0.5% Pluronic F-68): 35.8 μm
- D90 ([3]; 0.5% HPC, 0.5% Pluronic F-68): 54.9 μm
- D50 [3, 7]: 38.9 μm
- D90 [3, 7]: 53.1 μm
- D50 ([3]; 0.5% HPC, 0.5% Tween 80): 35.4 μm
- D90 ([3]; 0.5% HPC, 0.5% Tween 80): 53.5 μm
- D50 ([3]; 0.5% HPMC, 0.1% Tween 80): 25.8 μm
- D90 ([3]; 0.5% HPMC, 0.1% Tween 80): 53.5 μm
- D50 ([3]; 0.5% HPMC, 0.5% Pluronic F-68): 19.4 μm
- D90 ([3]; 0.5% HPMC, 0.5% Pluronic F-68): 33.5 μm
- D50 [3, 8]: 26.8 μm
- D90 [3, 8]: 59.3 μm
- D50 ([3]; 0.5% HPMC, 0.5% Tween 80): 27.5 μm
- D90 ([3]; 0.5% HPMC, 0.5% Tween 80): 49.7 μm
- systemic exposure [4]: low systemic exposure
- neutralizing titers, comparison of doses (RSV virus): Highest neutralizing titers
